Experimental data taken from EPA's CvTdb concentration-time database.

How the values were obtained:
Test in all cases: concentration in plasma after dosing
Rat [1] = settings: dosed: Anthraquinone, 40 mg/kg, oral, Female, F344
Rat [2] = settings: dosed: Anthraquinone, 400 mg/kg, oral, Male, F344
Rat [3] = settings: dosed: Anthraquinone, 40 mg/kg, oral, Female, F344; remark: listed apart in the source
Rat [4] = settings: 24 h; dosed: Anthraquinone; 40 mg/kg; oral; Male; F344
Rat [5] = settings: dosed: Anthraquinone, 40 mg/kg, oral, Female, Harlan Sprague Dawley
Rat [6] = settings: dosed: Anthraquinone, 100 mg/kg, oral, Male, F344
Rat [7] = settings: dosed: Anthraquinone, 100 mg/kg, oral, Male, F344; remark: listed apart in the source
Rat [8] = settings: 24 h; dosed: Anthraquinone; 100 mg/kg; oral; Male; F344
Rat [9] = settings: dosed: Anthraquinone, 40 mg/kg, oral, Female, Harlan Sprague Dawley; remark: listed apart in the source
Rat [10] = settings: dosed: Anthraquinone, 40 mg/kg, oral, Female, Harlan Sprague Dawley; remark: listed apart in the source
Rat [11] = settings: dosed: Anthraquinone, 40 mg/kg, oral, Female, Harlan Sprague Dawley; remark: listed apart in the source
Rat [12] = settings: dosed: Anthraquinone, 100 mg/kg, oral, Female, Harlan Sprague Dawley
Rat [13] = settings: dosed: Anthraquinone, 100 mg/kg, oral, Male, F344; remark: listed apart in the source
Rat [14] = settings: dosed: Anthraquinone, 40 mg/kg, oral, Female, Harlan Sprague Dawley; remark: listed apart in the source
Rat [15] = settings: dosed: Anthraquinone, 100 mg/kg, oral, Male, F344; remark: listed apart in the source
Rat [16] = settings: dosed: Anthraquinone, 400 mg/kg, oral, Male, F344; remark: listed apart in the source
Rat [17] = settings: dosed: Anthraquinone, 100 mg/kg, oral, Male, F344; remark: listed apart in the source
Rat [18] = settings: dosed: Anthraquinone, 100 mg/kg, oral, Male, F344; remark: listed apart in the source
Rat [19] = settings: dosed: Anthraquinone, 100 mg/kg, oral, Female, Harlan Sprague Dawley; remark: listed apart in the source
Rat [20] = settings: dosed: Anthraquinone, 100 mg/kg, oral, Female, F344
Rat [21] = settings: dosed: Anthraquinone, 100 mg/kg, oral, Female, F344; remark: listed apart in the source
Rat [22] = settings: 24 h; dosed: Anthraquinone; 100 mg/kg; oral; Male; F344; remark: listed apart in the source
Rat [23] = settings: dosed: Anthraquinone, 40 mg/kg, oral, Female, Harlan Sprague Dawley; remark: listed apart in the source
Rat [24] = settings: dosed: Anthraquinone, 400 mg/kg, oral, Male, F344; remark: listed apart in the source
Rat [25] = settings: dosed: Anthraquinone, 100 mg/kg, oral, Female, Harlan Sprague Dawley; remark: listed apart in the source
Rat [26] = settings: dosed: Anthraquinone, 400 mg/kg, oral, Male, F344; remark: listed apart in the source
Rat [27] = settings: dosed: Anthraquinone, 400 mg/kg, oral, Male, F344; remark: listed apart in the source
Rat [28] = settings: dosed: Anthraquinone, 100 mg/kg, oral, Female, Harlan Sprague Dawley; remark: listed apart in the source
Rat [29] = settings: dosed: Anthraquinone, 100 mg/kg, oral, Male, F344; remark: listed apart in the source
Rat [30] = settings: dosed: Anthraquinone, 40 mg/kg, oral, Male, Harlan Sprague Dawley
Rat [31] = settings: dosed: Anthraquinone, 100 mg/kg, oral, Male, F344; remark: listed apart in the source
Rat [32] = settings: dosed: Anthraquinone, 40 mg/kg, oral, Male, Harlan Sprague Dawley; remark: listed apart in the source
Rat [33] = settings: dosed: Anthraquinone, oral
Rat [34] = settings: dosed: Anthraquinone, 40 mg/kg, oral, Male, Harlan Sprague Dawley; remark: listed apart in the source
Rat [35] = settings: dosed: Anthraquinone, 40 mg/kg, oral, Male, Harlan Sprague Dawley; remark: listed apart in the source
Rat [36] = settings: dosed: Anthraquinone, 100 mg/kg, oral, Male, F344; remark: listed apart in the source

O=C1c2ccccc2C(=O)c2ccccc21 [Anthraquinone]
Settings	concentration in plasma [ng/mL]
Rat [1], 1 h	36
Rat [1], 18 h	157
Rat [2], 0.5 h	163
Rat [2], 24 h	1970
Rat [3], 1 h	61
Rat [3], 18 h	131
Rat [5], 1 h	57
Rat [5], 18 h	124
Rat [6], 1 h	55
Rat [6], 18 h	429
Rat [7], 2 h	120
Rat [7], 12 h	671
Rat [9], 4 h	111
Rat [9], 8 h	255
Rat [10], 4 h	136
Rat [10], 8 h	280
Rat [11], 2 h	128
Rat [11], 12 h	238
Rat [12], 2 h	210
Rat [12], 12 h	880
Rat [13], 2 h	233
Rat [13], 12 h	719
Rat [14], 1 h	65
Rat [14], 18 h	87
Rat [15], 0.5 h	28
Rat [15], 24 h	197
Rat [16], 1 h	129
Rat [16], 18 h	2320
Rat [17], 0.5 h	27
Rat [17], 24 h	349
Rat [18], 4 h	205
Rat [18], 8 h	522
Rat [19], 4 h	262
Rat [19], 8 h	595
Rat [20], 1 h	63
Rat [20], 18 h	469
Rat [21], 1 h	61
Rat [21], 18 h	538
Rat [23], 2 h	90
Rat [23], 12 h	224
Rat [24], 0.5 h	148
Rat [24], 24 h	2120
Rat [25], 4 h	255
Rat [25], 8 h	992
Rat [26], 2 h	352
Rat [26], 12 h	2500
Rat [27], 1 h	345
Rat [27], 18 h	2880
Rat [28], 2 h	192
Rat [28], 12 h	818
Rat [29], 4 h	323
Rat [29], 8 h	758
Rat [30], 2 h	101
Rat [30], 12 h	255
Rat [31], 1 h	72
Rat [31], 18 h	596
Rat [32], 2 h	99
Rat [32], 12 h	242
Rat [34], 4 h	117
Rat [34], 8 h	241
Rat [35], 4 h	131
Rat [35], 8 h	293
Rat [36], 0.5 h	41
Rat [36], 24 h	433

Settings	concentration in plasma [ng/mL]
Rat [4]	66
Rat [8]	259
Rat [22]	210

concentration in plasma [ng/mL], Rat [33]
Settings	0.5 h	1 h	2 h	4 h	8 h	12 h	18 h	24 h
40 mg/kg, Female, F344	–	30	–	–	–	–	191	–
40 mg/kg, Female, Harlan Sprague Dawley	–	61	154	149	249	224	103	65
40 mg/kg, Male, F344	–	–	–	–	–	–	–	26
40 mg/kg, Male, Harlan Sprague Dawley	–	–	87	101	203	204	–	–
100 mg/kg, Female, F344	–	66	–	–	–	–	652	–
100 mg/kg, Female, Harlan Sprague Dawley	–	–	127	232	721	610	–	–
100 mg/kg, Male, F344	–	63	157	259	611	696	415	261
400 mg/kg, Male, F344	106	235	285	–	–	2590	2700	1940
